# Measured values: PubChem BioAssay AID248 (DTP/NCI, 2004)
# Values joined by “and” are separate entries in the source; they are usually repeats but may differ in a detail not shown here. Equal values may be shown once. Toxic doses and inconclusive results are not listed.
# Test system: L1210 leukemia ip in BDF1 mice, survival T/C
# Test: NCI In Vivo Anticancer Drug Screen. Data for tumor model L1210 Leukemia (intraperitoneal) in B6D2F1 (BDF1) mice
# Conditions: endpoint: mean survival time, higher = longer survival
# Method in brief: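 Value reflects the ratio of survival in compound-treated mice to survival in vehicle-treated controls, with both groups carrying the same transplanted tumor.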
# [1] = dose: 100.0 mg/kg/injection, schedule: Q01DX001 (ip), vehicle: saline
# [2] = dose: 200.0 mg/kg/injection, schedule: Q01DX001 (ip), vehicle: saline
# [3] = dose: 400.0 mg/kg/injection, schedule: Q01DX001 (ip), vehicle: saline
# [4] = dose: 100.0 mg/kg/injection, schedule: Q01DX009 (ip), vehicle: saline with Tween-80
# [5] = dose: 200.0 mg/kg/injection, schedule: Q01DX009 (ip), vehicle: saline with Tween-80
# [6] = dose: 400.0 mg/kg/injection, schedule: Q01DX009 (ip), vehicle: saline with Tween-80
# [7] = dose: 100.0 mg/kg/injection, schedule: Q04DX003 (ip), vehicle: Klucel (hydroxypropylcellulose) (HPC)
# [8] = dose: 200.0 mg/kg/injection, schedule: Q04DX003 (ip), vehicle: Klucel (hydroxypropylcellulose) (HPC)
# [9] = dose: 400.0 mg/kg/injection, schedule: Q04DX003 (ip), vehicle: Klucel (hydroxypropylcellulose) (HPC)
# [10] = dose: 100.0 mg/kg/injection, schedule: Q01DX001 (ip), vehicle: saline with Tween-80
# [11] = dose: 100.0 mg/kg/injection, schedule: Q01DX001 (ip), vehicle: carboxymethylcellulose (CMC)
# [12] = dose: 200.0 mg/kg/injection, schedule: Q01DX001 (ip), vehicle: carboxymethylcellulose (CMC)
# [13] = dose: 400.0 mg/kg/injection, schedule: Q01DX001 (ip), vehicle: carboxymethylcellulose (CMC)
# [14] = dose: 100.0 mg/kg/injection, schedule: Q01DX009 (ip), vehicle: Klucel (hydroxypropylcellulose) (HPC)
# [15] = dose: 200.0 mg/kg/injection, schedule: Q01DX009 (ip), vehicle: Klucel (hydroxypropylcellulose) (HPC)
# [16] = dose: 400.0 mg/kg/injection, schedule: Q01DX009 (ip), vehicle: Klucel (hydroxypropylcellulose) (HPC)
smiles,measurement,setting,value
Clc1cc(N2CC2)nc(N2CC2)n1,T/C,"dose: 1.56 mg/kg/injection, schedule: Q01DX001 (ip), vehicle: saline",92 % of control
same,T/C,"dose: 1.56 mg/kg/injection, schedule: Q04DX003 (ip), vehicle: saline",110 % of control
same,T/C,"dose: 1.6 mg/kg/injection, schedule: Q01DX009 (ip), vehicle: carboxymethylcellulose (CMC)",118 % of control
same,T/C,"dose: 2.14 mg/kg/injection, schedule: Q01DX009 (ip), vehicle: saline",166 % of control and 184 % of control
same,T/C,"dose: 2.5 mg/kg/injection, schedule: Q01DX001 (ip), vehicle: carboxymethylcellulose (CMC)",111 % of control
same,T/C,"dose: 2.7 mg/kg/injection, schedule: Q01DX009 (ip), vehicle: carboxymethylcellulose (CMC)",120 % of control
same,T/C,"dose: 3.12 mg/kg/injection, schedule: Q01DX001 (ip), vehicle: saline",93 % of control
same,T/C,"dose: 3.25 mg/kg/injection, schedule: Q01DX009 (ip), vehicle: saline with Tween-80",185 % of control
same,T/C,"dose: 3.25 mg/kg/injection, schedule: Q01DX009 (ip), vehicle: saline",177 % of control and 226 % of control
same,T/C,"dose: 4.12 mg/kg/injection, schedule: Q04DX003 (ip), vehicle: saline",156 % of control
same,T/C,"dose: 4.44 mg/kg/injection, schedule: Q01DX001 (ip), vehicle: carboxymethylcellulose (CMC)",115 % of control
same,T/C,"dose: 4.87 mg/kg/injection, schedule: Q01DX009 (ip), vehicle: saline",103 % of control
same,T/C,"dose: 5.0 mg/kg/injection, schedule: Q01DX001 (ip), vehicle: carboxymethylcellulose (CMC)",120 % of control
same,T/C,"dose: 5.0 mg/kg/injection, schedule: Q01DX001 (ip), vehicle: saline",118 % of control
same,T/C,"dose: 6.25 mg/kg/injection, schedule: Q01DX001 (ip), vehicle: saline",98 % of control
same,T/C,"dose: 6.25 mg/kg/injection, schedule: Q04DX003 (ip), vehicle: saline",166 % of control and 173 % of control and 202 % of control
same,T/C,"dose: 6.67 mg/kg/injection, schedule: Q01DX001 (ip), vehicle: carboxymethylcellulose (CMC)",121 % of control
same,T/C,"dose: 7.5 mg/kg/injection, schedule: Q01DX009 (ip), vehicle: carboxymethylcellulose (CMC)",106 % of control
same,T/C,"dose: 10.0 mg/kg/injection, schedule: Q01DX001 (ip), vehicle: carboxymethylcellulose (CMC)",154 % of control
same,T/C,"dose: 10.0 mg/kg/injection, schedule: Q01DX001 (ip), vehicle: saline",156 % of control and 160 % of control
same,T/C,"dose: 15.0 mg/kg/injection, schedule: Q01DX001 (ip), vehicle: saline",160 % of control
same,T/C,"dose: 20.0 mg/kg/injection, schedule: Q01DX001 (ip), vehicle: carboxymethylcellulose (CMC)",104 % of control
CNc1ccc(C(=O)OC)cc1,T/C,[1],100 % of control
same,T/C,[2],100 % of control
same,T/C,[3],103 % of control
CCOc1ccc(CC(=O)Nc2cc([N+](=O)[O-])ccc2NCCN(CC)CC)cc1,T/C,"dose: 25.0 mg/kg/injection, schedule: Q04DX003 (ip), vehicle: other",97 % of control
same,T/C,"dose: 50.0 mg/kg/injection, schedule: Q04DX003 (ip), vehicle: other",97 % of control
same,T/C,"dose: 100.0 mg/kg/injection, schedule: Q04DX003 (ip), vehicle: other",95 % of control and 111 % of control
Cc1ccc([N+](=O)[O-])cc1NC(=O)C(Cl)(Cl)Cl,T/C,[4],94 % of control
same,T/C,[5],98 % of control
same,T/C,[6],100 % of control
O=C(c1ccccc1)N1CCC(CCO)C(O)C1Cc1c[nH]c2ccccc12 (configuration not stated),T/C,"dose: 100.0 mg/kg/injection, schedule: Q01DX009 (ip), vehicle: saline",96 % of control
same,T/C,"dose: 100.0 mg/kg/injection, schedule: Q04DX003 (ip), vehicle: saline",100 % of control
same,T/C,"dose: 200.0 mg/kg/injection, schedule: Q01DX009 (ip), vehicle: saline",93 % of control
same,T/C,"dose: 200.0 mg/kg/injection, schedule: Q04DX003 (ip), vehicle: saline",94 % of control
same,T/C,"dose: 400.0 mg/kg/injection, schedule: Q01DX009 (ip), vehicle: saline",98 % of control
same,T/C,"dose: 400.0 mg/kg/injection, schedule: Q04DX003 (ip), vehicle: saline",92 % of control
COc1ccc(OC)c(C(=O)CCCCCCCCC(=O)c2cc(OC)ccc2OC)c1,T/C,[7],104 % of control
same,T/C,[8],104 % of control
same,T/C,[9],90 % of control
O=C(O)c1ccc(CCCCc2ccccc2)cc1,T/C,"dose: 25.0 mg/kg/injection, schedule: Q01DX001 (ip), vehicle: saline with Tween-80",103 % of control
same,T/C,"dose: 50.0 mg/kg/injection, schedule: Q01DX001 (ip), vehicle: saline with Tween-80",121 % of control
same,T/C,[10],107 % of control
O=C(NCCNC(=O)c1ccncc1)c1ccccc1,T/C,[11],93 % of control
same,T/C,[12],104 % of control
same,T/C,[13],98 % of control
COc1cc2c(cc1OC(C)=O)CCCCC2=O,T/C,[1],101 % of control
same,T/C,[2],103 % of control
same,T/C,[3],101 % of control
CCOC(=O)C1(Cc2ccccc2)CCCC1=O (configuration not stated),T/C,[11],107 % of control
same,T/C,[12],96 % of control
same,T/C,[13],96 % of control
O=C(/C=C/c1ccco1)c1cccc([N+](=O)[O-])c1,T/C,[10],97 % of control
same,T/C,"dose: 200.0 mg/kg/injection, schedule: Q01DX001 (ip), vehicle: saline with Tween-80",95 % of control
same,T/C,"dose: 400.0 mg/kg/injection, schedule: Q01DX001 (ip), vehicle: saline with Tween-80",92 % of control
CC(=O)Nc1ccccc1C[P+](c1ccccc1)(c1ccccc1)c1ccccc1,T/C,"dose: 25.0 mg/kg/injection, schedule: Q04DX003 (ip), vehicle: Klucel (hydroxypropylcellulose) (HPC)",97 % of control
same,T/C,"dose: 50.0 mg/kg/injection, schedule: Q04DX003 (ip), vehicle: Klucel (hydroxypropylcellulose) (HPC)",98 % of control
same,T/C,[7],100 % of control
COC(=O)C(CSCSC)NC(=O)/C=C/c1cc(OC)ccc1OC (configuration not stated),T/C,[4],87 % of control
same,T/C,"dose: 100.0 mg/kg/injection, schedule: Q04DX003 (ip), vehicle: saline with Tween-80",94 % of control
same,T/C,[5],93 % of control
same,T/C,"dose: 200.0 mg/kg/injection, schedule: Q04DX003 (ip), vehicle: saline with Tween-80",88 % of control
same,T/C,[6],93 % of control
same,T/C,"dose: 400.0 mg/kg/injection, schedule: Q04DX003 (ip), vehicle: saline with Tween-80",94 % of control
COc1ccc(Cl)cc1NS(=O)(=O)c1cccc([N+](=O)[O-])c1,T/C,[14],96 % of control
same,T/C,[15],98 % of control
same,T/C,[16],91 % of control
CN(C)CCC[N+]1([O-])c2ccccc2CCc2ccccc21,T/C,"dose: 9.37 mg/kg/injection, schedule: Q01DX009 (ip), vehicle: saline",102 % of control
same,T/C,"dose: 18.75 mg/kg/injection, schedule: Q01DX009 (ip), vehicle: saline",108 % of control
same,T/C,"dose: 18.75 mg/kg/injection, schedule: Q04DX003 (ip), vehicle: saline",102 % of control
same,T/C,"dose: 37.5 mg/kg/injection, schedule: Q01DX009 (ip), vehicle: saline",97 % of control
same,T/C,"dose: 37.5 mg/kg/injection, schedule: Q04DX003 (ip), vehicle: saline",96 % of control
same,T/C,"dose: 75.0 mg/kg/injection, schedule: Q01DX009 (ip), vehicle: saline",102 % of control
same,T/C,"dose: 75.0 mg/kg/injection, schedule: Q04DX003 (ip), vehicle: saline",96 % of control
same,T/C,"dose: 150.0 mg/kg/injection, schedule: Q04DX003 (ip), vehicle: saline",88 % of control
Cc1ccc(C)c(NC(=O)N(CC(O)c2ccccc2)C2CCCCC2)c1 (configuration not stated),T/C,[14],103 % of control
same,T/C,[7],96 % of control
same,T/C,[15],97 % of control
same,T/C,[8],100 % of control
same,T/C,[16],95 % of control
same,T/C,[9],104 % of control
CCOc1ccc(O)cc1,T/C,"dose: 100.0 mg/kg/injection, schedule: Q04DX002 (ip), vehicle: saline + alcohol",109 % of control
same,T/C,"dose: 200.0 mg/kg/injection, schedule: Q04DX002 (ip), vehicle: saline + alcohol",100 % of control
O=C(O)COc1cc(Cl)c(Cl)cc1Cl (tested in a mixture with another compound),T/C,"dose: 25.0 mg/kg/injection, schedule: Q01DX001 (ip), vehicle: saline",110 % of control
same,T/C,"dose: 50.0 mg/kg/injection, schedule: Q01DX001 (ip), vehicle: saline",93 % of control
CCCCOC(OCCCC)c1ccccc1,T/C,"dose: 50.0 mg/kg/injection, schedule: Q01DX001 (ip), vehicle: carboxymethylcellulose (CMC)",95 % of control
same,T/C,[11],88 % of control
CCCCCCC(/C=C/C=C/c1ccccc1)=N\O,T/C,[7],96 % of control
same,T/C,[15],91 % of control
same,T/C,[8],90 % of control
same,T/C,[16],91 % of control
same,T/C,[9],98 % of control
